Article PMC7558026, “Exploring and applying the substrate promiscuity of a C-glycosyltransferase in the chemo-enzymatic synthesis of bioactive C-glycosides” (Nature Communications, 2020)
Substitutions are numbered along the chain they refer to. Values joined by “and” are separate entries in the source; they are usually repeats but may differ in a detail not shown here. Identical values can stand only once.

Legend:
Type in all cases: biochemical, Aloe barbadensis
AbCGT = AbCGT (Aloe vera, UniProt A0A7G9P699); assay: Glycosyltransferase activity assay, purified AbCGT (wild type) with aglycon acceptors and UDP-Glc; conditions: for conversion rates, O,N,S-glycosylation / conversion rates, di-C-glycosylation / conversion rates, mono-C-glycosylation: aglycon acceptor with UDP-Glc, pH 7.4, 30 °C, up to 12 h, Reaction-1 to -3
Chain of AbCGT (A0A7G9P699 entry or part of it): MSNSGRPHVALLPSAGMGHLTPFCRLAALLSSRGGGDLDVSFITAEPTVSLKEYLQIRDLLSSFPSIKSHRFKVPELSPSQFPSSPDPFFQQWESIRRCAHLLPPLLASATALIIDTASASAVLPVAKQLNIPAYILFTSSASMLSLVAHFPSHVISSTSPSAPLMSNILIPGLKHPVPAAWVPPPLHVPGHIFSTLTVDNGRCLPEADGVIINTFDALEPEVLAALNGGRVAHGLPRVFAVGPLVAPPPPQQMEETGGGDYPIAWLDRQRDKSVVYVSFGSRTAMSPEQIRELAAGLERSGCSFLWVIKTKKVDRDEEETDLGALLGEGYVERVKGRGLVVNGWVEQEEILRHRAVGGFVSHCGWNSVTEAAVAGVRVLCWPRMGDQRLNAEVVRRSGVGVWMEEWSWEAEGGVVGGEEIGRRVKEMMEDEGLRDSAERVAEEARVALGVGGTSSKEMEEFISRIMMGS
Protocol: Due to the instability of some acceptors in the buffer of pH 11.0, the reactions were performed under the physiological conditions (pH 7.4, 30 °C) to compare the catalytic activities of AbGT27 with different substrates under the same conditions. The reactions were performed at 30 °C for up to 12 h and terminated by the addition of 200 μL of ice-cold methanol. Subsequently, samples were centrifuged at 15,000 × g for 30 min to collect the supernatant, and aliquots were analyzed by HPLC-UV/ESIMS. […] The gradient programs were used for the analysis of the reactions (Supplementary Table 6). The conversion rates of the enzyme reactions were calculated from peak areas of glycosylated products and substrates as analyzed by HPLC. To facilitate inferential statistical analysis, three parallel assays were routinely performed; the means ± SD from triplicate analyses are reported here.

AbCGT V183E = biological target: T1, AbCGT V183E (Aloe vera, UniProt A0A7G9P699, V183E); assay: Glycosyltransferase activity of AbCGT variant V183E
T1 sequence (A0A7G9P699 1-470 V183E): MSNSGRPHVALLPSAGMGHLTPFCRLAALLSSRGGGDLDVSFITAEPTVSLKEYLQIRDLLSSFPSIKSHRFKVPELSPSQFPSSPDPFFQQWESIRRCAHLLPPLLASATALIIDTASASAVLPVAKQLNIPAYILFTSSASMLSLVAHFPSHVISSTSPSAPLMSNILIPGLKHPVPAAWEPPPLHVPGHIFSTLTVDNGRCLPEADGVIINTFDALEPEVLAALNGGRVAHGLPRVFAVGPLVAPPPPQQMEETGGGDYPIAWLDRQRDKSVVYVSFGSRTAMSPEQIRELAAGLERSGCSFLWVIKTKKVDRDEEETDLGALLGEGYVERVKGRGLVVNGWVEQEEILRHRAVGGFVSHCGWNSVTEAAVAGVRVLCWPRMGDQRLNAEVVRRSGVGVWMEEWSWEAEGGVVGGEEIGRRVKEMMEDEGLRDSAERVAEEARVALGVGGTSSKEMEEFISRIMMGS
Protocol: (§1) The reaction mixture contained 0.5 mM sugar donors (1.0 mM for di-glycosylation), 0.25 mM aglycons, 50 mM Tris-HCl (pH 7.4), and 50‒100 μg of purified AbCGT in a final volume of 100 μL. Due to the instability of some acceptors in the buffer of pH 11.0, the reactions were performed under the physiological conditions (pH 7.4, 30 °C) to compare the catalytic activities of AbGT27 with different substrates under the same conditions. The reactions were performed at 30 °C for up to 12 h and terminated by the addition of 200 μL of ice-cold methanol. Subsequently, samples were centrifuged at 15,000 × g for 30 min to collect the supernatant, and aliquots were analyzed by HPLC-UV/ESIMS. HPLC analysis was performed on a Shiseido CAPCELL PAK C18 MG III column (250 mm × 4.6 mm I.D., 5 μm, Shiseido Co., Ltd., Japan) at a flow rate of 1 mL min^‒1. The mobile phase was a gradient elution of solvents A (0.1% formic acid aqueous solution) and B (methanol). The gradient programs were used for the analysis of the reactions (Supplementary Table 6). The conversion rates of the enzyme reactions were calculated from peak areas of glycosylated products and substrates as analyzed by HPLC. To facilitate inferential statistical analysis, three parallel assays were routinely performed; the means ± SD from triplicate analyses are reported here.
(§2) Site-saturation mutagenesis of AbCGT at residue 183 was performed by PCR using pET28a-AbCGT as a template and the corresponding degenerate primers, which are listed in Supplementary Table 5. PCR products were purified and transformed into Trans1-T1 (DE3) E. coli. The sequences of pET28a-AbCGT mutants were confirmed by sequencing, and transformed into Transetta (DE3) E. coli for heterologous expression following protein purification.

AbCGT V183D = biological target: T2, AbCGT V183D (Aloe vera, UniProt A0A7G9P699, V183D); assay: Glycosyltransferase activity of AbCGT variant V183D
T2 sequence (A0A7G9P699 1-470 V183D): T1 sequence (A0A7G9P699 1-470 V183E) with E183D
Protocol: as §1, §2

| SMILES | conversion rates, O,N,S-glycosylation (AbCGT) | conversion rates, di-C-glycosylation (AbCGT) | conversion rates, mono-C-glycosylation (AbCGT) | WT/yield of C-glycoside(%) (AbCGT; reaction-1) | WT/yield of O-glycoside(%) (AbCGT; reaction-1) | WT/yield of C-glycoside(%) (AbCGT; reaction-2) | WT/yield of O-glycoside(%) (AbCGT; reaction-2) | WT/yield of C-glycoside(%) (AbCGT; reaction-3) | WT/yield of O-glycoside(%) (AbCGT; reaction-3) | V183E/yield of O-glycoside(%) (AbCGT V183E; reaction-1) | V183E/yield of C-glycoside(%) (AbCGT V183E; reaction-2) | V183E/yield of O-glycoside(%) (AbCGT V183E; reaction-2) | V183E/yield of C-glycoside(%) (AbCGT V183E; reaction-3) | V183E/yield of O-glycoside(%) (AbCGT V183E; reaction-3) | V183D/yield of C-glycoside(%) (AbCGT V183D; reaction-1) | V183D/yield of O-glycoside(%) (AbCGT V183D; reaction-1) | V183D/yield of C-glycoside(%) (AbCGT V183D; reaction-2) | V183D/yield of O-glycoside(%) (AbCGT V183D; reaction-2) | V183D/yield of C-glycoside(%) (AbCGT V183D; reaction-3) | V183D/yield of O-glycoside(%) (AbCGT V183D; reaction-3) | further results |
| --- | --- | --- | --- | --- | --- | --- | --- | --- | --- | --- | --- | --- | --- | --- | --- | --- | --- | --- | --- | --- | --- |
| Oc1cc(O)cc(OCCCCCCc2ccccc2)c1 [Compound 22] | 33% and 31.4% and 25.1% | 0% | 8.5% and 9.9% and 11.3% | 9.6% | 28.2% | 11% | 26.9% | 9.5% | 34.6% | 0% | 0% | 0% | 0% | 0% | 0% | 0% | 0% | 0% | 0% | 0% | V183E/yield of C-glycoside(%) (AbCGT V183E; reaction-1): 0% |
| CC(=O)c1ccccc1O [Compound 1] | 30.2% and 31% and 32.1% | 0% | 0% | 0% | 32.8% | 0% | 33.5% | 0% | 28.2% | – | – | – | – | – | 0% | 0% | 0% | 0% | 0% | 0% | – |
| CC(=O)c1cccc(O)c1 [Compound 2] | 71% and 72.2% and 73.1% | 0% | 0% | 0% | 70.1% | 0% | 73.8% | 0% | 73% | 0% | 0% | 0% | 0% | 0% | 0% | 0% | 0% | 0% | 0% | 0% | V183E/yield of C-glycoside(%) (AbCGT V183E; reaction-1): 0% |
| CC(=O)c1ccc(O)cc1O [Compound 6, 2,4-dihydroxyacetophenone] | 43.8% and 46.5% and 44.5% | 0% | 27.1% and 26.5% and 27.4% | 29.2% | 43.5% | 25.9% | 45.7% | 26% | 47% | 0% | 5.5% | 0% | 6.8% | 0% | 13.9% | 1% | 12.3% | 1.5% | 13.1% | 1.4% | – |
| COc1cc(O)c(C(C)=O)c(O)c1 [Compound 13] | 20.7% and 23.5% and 25.6% | 0% | 66.9% and 65.9% and 68.6% | 70.5% | 21.2% | 65% | 22.7% | 68.1% | 25.9% | 0.8% | 4.1% | 2% | 6% | 1.1% | 6.8% | 0% | 7.3% | 0% | 7% | 0% | V183E/yield of C-glycoside(%) (AbCGT V183E; reaction-1): 5.7% |
| CC(=O)c1c(O)cc(C)cc1O [Compound 7] | 77% and 78.6% and 82.4% | 0% | 13.9% and 12% and 15.9% | 15.2% | 77.6% | 14.1% | 78% | 13.5% | 81.4% | 0% | 8.9% | 0% | 13.1% | 0% | 8% | 0.8% | 7.2% | 1% | 7.2% | 1.3% | V183E/yield of C-glycoside(%) (AbCGT V183E; reaction-1): 11.1% |
| CC(=O)c1ccc(O)cc1 [Compound 3] | 70.3% and 72% and 73% | 0% | 0% | 0% | 70.4% | 0% | 71.9% | 0% | 71% | 0% | 0% | 0% | 0% | 0% | 0% | 0% | 0% | 0% | 0% | 0% | V183E/yield of C-glycoside(%) (AbCGT V183E; reaction-1): 0% |
| CC(=O)c1cc(O)cc(O)c1 [Compound 4, 3,5-dihydroxyacetophenone] | 32.6% and 34.9% and 33.8% | 0% | 0% | 1% | 38.8% | 0.8% | 32.4% | 1.3% | 32.9% | 0% | 0% | 0% | 0% | 0% | 0% | 0% | 0% | 0% | 0% | 0% | V183E/yield of C-glycoside(%) (AbCGT V183E; reaction-1): 0% |
